Laboratory results as given in patent US20090264401A1, “SUBSTITUTED PYRIMIDIN-5-CARBOXAMIDES 281” (AstraZeneca AB, priority 2008, published 2009).

Biological target: T1, human 11βHSD1 enzyme (Homo sapiens, UniProt P28845)
T1 construct: baculovirus expressed N terminal 6-His tagged full length human 11βHSD1 enzyme; 6-His (N); made in house
Assay: 11βHSD1 cortisone to cortisol conversion, competitive HTRF assay
Assay type: biochemical
Conditions: human 11-βHSD; test concentration of 30 μM of compound
Procedure, shortened: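 Enzyme was baculovirus-expressed, N-terminal 6-His-tagged full-length human 11βHSD1, purified on a copper chelate column. Compounds were added in buffer containing 1% DMSO at 10-fold final concentration.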

T1 sequence (P28845 whole entry): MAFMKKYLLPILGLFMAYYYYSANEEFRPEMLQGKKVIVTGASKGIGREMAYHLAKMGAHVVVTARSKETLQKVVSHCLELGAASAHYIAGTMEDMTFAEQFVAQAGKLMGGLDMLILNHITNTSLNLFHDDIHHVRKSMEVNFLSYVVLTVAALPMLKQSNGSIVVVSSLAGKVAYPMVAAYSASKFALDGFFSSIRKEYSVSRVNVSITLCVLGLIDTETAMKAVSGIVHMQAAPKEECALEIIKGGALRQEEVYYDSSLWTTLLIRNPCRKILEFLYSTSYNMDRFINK

Row | SMILES | inhibition at 30 µM
1 | CNc1ncc(C(=O)N[C@H]2C3CC4CC2C[C@@](O)(C4)C3)c(C2CCC2)n1 [Example 91, 4-cyclobutyl-N-[(2r,5s)-5-hydroxyadamantan-2-yl]-2-(methylamino)pyrimidine-5-carboxamide] | 95.7%
2 | C[C@@H]1CN(c2ncc(C(=O)N[C@H]3C4CC5CC3C[C@@](O)(C5)C4)c(C3CCC3)n2)C[C@H](C)N1 [Example 99, 4-cyclobutyl-2-[(3R,5S)-3,5-dimethylpiperazin-1-yl]-N-[(2r,5s)-5-hydroxyadamantan-2-yl]pyrimidine-5-carboxamide] | 93.3%
3 | C[C@@H]1CN(c2ncc(C(=O)N[C@H]3C4CC5CC3C[C@@](O)(C5)C4)c(C3CC3)n2)C[C@H](C)O1 [Example 42, 4-Cyclopropyl-2-(2,6-dimethylmorpholin-4-yl)-N-[(2r,5s)-5-hydroxyadamantan-2-yl]pyrimidine-5-carboxamide] | 99.4%
4 | O=C(N[C@H]1C2CC3CC1C[C@@](O)(C3)C2)c1cnc(OC2CCCC2)nc1C1CC1 [Example 77, 2-(cyclopentyloxy)-4-cyclopropyl-N-[(2r,5s)-5-hydroxyadamantan-2-yl]pyrimidine-5-carboxamide] | 90.9%
5 | O=C(N[C@H]1C2CC3CC1C[C@@](O)(C3)C2)c1cnc(OC2COC2)nc1C1CC1 [Example 78, 4-cyclopropyl-N-[(2r,5s)-5-hydroxyadamantan-2-yl]-2-(oxetan-3-yloxy)pyrimidine-5-carboxamide] | 93.1%

More lines, now with the values ahead:

Row | inhibition at 30 µM | SMILES
6 | 105% | COc1nc(NC2CC2)ncc1C(=O)N[C@H]1C2CC3CC1C[C@@](O)(C3)C2 [Example 206, 2-(cyclopropylamino)-N-[(2r,5s)-5-hydroxytricyclo[3.3.1.13,7]dec-2-yl]-4-methoxypyrimidine-5-carboxamide]
7 | 52.8% | O=C(N[C@H]1C2CC3CC1C[C@@](O)(C3)C2)c1cnc(N2CC(F)(F)C2)nc1N1CC(F)(F)C1 [Example 200, 2,4-bis(3,3-difluoroazetidin-1-yl)-N-[(2r,5s)-5-hydroxyadamantan-2-yl]pyrimidine-5-carboxamide]
8 | 101% | NC1(c2ncc(C(=O)N[C@H]3C4CC5CC3C[C@@](O)(C5)C4)c(C3CCCC3)n2)CC1 [Example 151, 2-(1-Aminocyclopropyl)-4-cyclopentyl-N-[(2r,5s)-5-hydroxyadamantan-2-yl]pyrimidine-5-carboxamide]
9 | 103% | O=C(N[C@H]1C2CC3CC1C[C@@](O)(C3)C2)c1cnc(NCCN2CCOCC2)nc1C1CCCC1 [Example 147, 4-cyclopentyl-N-[(2r,5s)-5-hydroxytricyclo[3.3.1.13,7]dec-2-yl]-2-[(2-morpholin-4-ylethyl)amino]pyrimidine-5-carboxamide]
10 | 102% | C[C@@H]1CN(c2ncc(C(=O)N[C@H]3C4CC5CC3C[C@@](O)(C5)C4)c(C3CCC3)n2)C[C@@H](C)O1 [Example 101, 4-cyclobutyl-2-[(2R,6R)-2,6-dimethylmorpholin-4-yl]-N-[(2r,5s)-5-hydroxyadamantan-2-yl]pyrimidine-5-carboxamide]
11 | 102% | COc1nc(N2C[C@@H](C)O[C@@H](C)C2)ncc1C(=O)N[C@H]1C2CC3CC1C[C@@](O)(C3)C2 [Example 205, 2-[(2R,6S)-2,6-Dimethylmorpholin-4-yl]-N-[(2r,5 s)-5-hydroxytricyclo[3.3.1.13.7]dec-2-yl]-4-methoxypyrimidine-5-carboxamide]
